Test results taken from patent US7550506B2, “Amino acid derived prodrugs of propofol, compositions and uses thereof” (XenoPort, Inc., priority 2004, dated 2009).

Experiments:
[1] = tested on: pancreatin; conditions: 1% (w/v) pancreatin, substrate 5.0 μM, pH 7.5, 37° C.
Method: (§1) The stability of propofol prodrugs were evaluated in one or more in vitro systems using a variety of tissue preparations following methods known in the art. Tissues were obtained from commercial sources (e.g., Pel-Freez Biologicals, Rogers, Ark., or GenTest Corporation, Woburn, Mass.). Experimental conditions used for the in vitro studies are described in Table 1 below. Each preparation was incubated with test compound at 37° C. for one hour. Aliquots (50 μL) were removed at 0, 30, and 60 min and quenched with 0.1% trifluoroacetic acid in acetonitrile. Samples were then centrifuged and analyzed by LC/MS/MS (see Example 134 below for method details). Stability of drug conjugates towards specific enzymes (e.g., peptidases, etc.) were also assessed in vitro by incubation with the purified enzyme.
Pancreatin Stability: Stability studies were conducted by incubating conjugate (5 μM) with 1% (w/v) pancreatin (Sigma, P-1625, from porcine pancreas) in 0.025 M Tris buffer containing 0.5 M NaCl (pH 7.5) at 37° C. for 60 min. The reaction was stopped by addition of 2 volumes of methanol. After centrifugation at 14,000 rpm for 10 min, the supernatant was removed and analyzed by LC/MS/MS.

[2] = substrate 2.0 μM, 37° C.; for % of Propofol Released from Propofol Prodrugs after 60 min, Human Plasma: no cofactors; for % of Propofol Released from Propofol Prodrugs after 60 min, Human Liver S9 (0.5 mg/mL): NADPH
Method: as §1

[3] = Caco-2 homogenate S9 stability; format: in vitro ADME; conditions: Caco-2 homogenate S9 0.5 mg protein per mL, substrate 5.0 μM, 37° C.
Method: Caco-2 Homogenate S9 Stability: Caco-2 cells were grown for 21 days prior to harvesting. Culture medium was removed and cell monolayers were rinsed and scraped off into ice-cold 10 mM sodium phosphate/0.15 M potassium chloride, pH 7.4. Cells were lysed by sonication at 4° C. using a probe sonicator. Lysed cells were then transferred into 1.5 mL centrifuge vials and centrifuged at 9000 g for 20 min at 4° C. The resulting supernatant (Caco-2 cell homogenate S9 fraction) was aliquoted into 0.5 mL vials and stored at −80° C. until used.
For stability studies, prodrug (5 μM) was incubated in Caco-2 homogenate S9 fraction (0.5 mg protein per mL) for 60 min at 37° C. Concentrations of intact prodrug and released propofol were determined at zero time and 60 minutes using LC/MS/MS.

[4] = oral dosing in rats (Raoof et al. 1996); cited from earlier work

CSCCC(N)C(=O)NC(C(=O)O)C(C)OC(=O)Oc1c(C(C)C)cccc1C(C)C.Cl (stereo not shown) [(27), H-Met-Thr(γ-OC(O)OPropofol)-OH Hydrochloride]
% of Propofol Released from Propofol Prodrugs after 60 min, Pancreatin [1]: 0% | % of Propofol Released from Propofol Prodrugs after 60 min, Human Plasma [2]: 0% | % of Propofol Released from Propofol Prodrugs after 60 min, Human Liver S9 (0.5 mg/mL) [2]: 0% | % of Propofol Released from Propofol Prodrugs after 60 min, Caco-2 S9 [3]: 20%

CC(C)c1cccc(C(C)C)c1OC(=O)OC(C)C(NC(=O)C(N)CCCCN)C(=O)O.Cl.Cl (stereo not shown) [(18), H-Lys-Thr(γ-OC(O)OPropofol)-OH Bis-Hydrochloride]
% of Propofol Released from Propofol Prodrugs after 60 min, Pancreatin [1]: 1% | % of Propofol Released from Propofol Prodrugs after 60 min, Human Plasma [2]: 12% | % of Propofol Released from Propofol Prodrugs after 60 min, Human Liver S9 (0.5 mg/mL) [2]: 32% | % of Propofol Released from Propofol Prodrugs after 60 min, Caco-2 S9 [3]: 33%

CC(C)c1cccc(C(C)C)c1OC(=O)OC(C)C(NC(=O)C(N)CN)C(=O)O.Cl.Cl (stereo not shown) [(24), H-Dap-Thr(γ-OC(O)OPropofol)-OH Bis-Hydrochloride]
% of Propofol Released from Propofol Prodrugs after 60 min, Pancreatin [1]: 0% | % of Propofol Released from Propofol Prodrugs after 60 min, Human Plasma [2]: 0% | % of Propofol Released from Propofol Prodrugs after 60 min, Human Liver S9 (0.5 mg/mL) [2]: 1% | % of Propofol Released from Propofol Prodrugs after 60 min, Caco-2 S9 [3]: 21%

CC(C)c1cccc(C(C)C)c1O [propofol, 2,6-diisopropylphenol]
Share of the administered drug that undergoes first pass metabolism [4]: approximately 90%

CC(C)c1cccc(C(C)C)c1OC(=O)OC(C)C(NC(=O)C(N)CCCN=C(N)N)C(=O)O.Cl.Cl.Cl (stereo not shown) [(23), H-Arp-Thr(γ-OC(O)OPropofol)-OH Tris-Hydrochloride]
% of Propofol Released from Propofol Prodrugs after 60 min, Pancreatin [1]: 4% | % of Propofol Released from Propofol Prodrugs after 60 min, Human Plasma [2]: 25% | % of Propofol Released from Propofol Prodrugs after 60 min, Human Liver S9 (0.5 mg/mL) [2]: 93% | % of Propofol Released from Propofol Prodrugs after 60 min, Caco-2 S9 [3]: 100%

CC(C)c1cccc(C(C)C)c1OC(=O)OC(C)C(NC(=O)C(N)CCCN)C(=O)O.Cl.Cl (stereo not shown) [(28), H-Orn-Thr(γ-OC(O)OPropofol)-OH Bis-Hydrochloride]
% of Propofol Released from Propofol Prodrugs after 60 min, Pancreatin [1]: 0% | % of Propofol Released from Propofol Prodrugs after 60 min, Human Plasma [2]: 2% | % of Propofol Released from Propofol Prodrugs after 60 min, Human Liver S9 (0.5 mg/mL) [2]: 11% | % of Propofol Released from Propofol Prodrugs after 60 min, Caco-2 S9 [3]: 54%

CC(C)c1cccc(C(C)C)c1OC(=O)OC(C)C(NC(=O)CN)C(=O)O (stereo not shown) [(10), H-Gly-Thr(γ-OC(O)OPropofol)-OH]
% of Propofol Released from Propofol Prodrugs after 60 min, Pancreatin [1]: 43% | % of Propofol Released from Propofol Prodrugs after 60 min, Human Plasma [2]: 2% | % of Propofol Released from Propofol Prodrugs after 60 min, Human Liver S9 (0.5 mg/mL) [2]: 2% | % of Propofol Released from Propofol Prodrugs after 60 min, Caco-2 S9 [3]: 30%

CC(C)c1cccc(C(C)C)c1OC(=O)OC(C)C(NC(=O)C(N)Cc1cnc[nH]1)C(=O)O.Cl.Cl (stereo not shown) [(25), H-His-Thr(γ-OC(O)OPropofol)-OH Bis-Hydrochloride]
% of Propofol Released from Propofol Prodrugs after 60 min, Pancreatin [1]: 0% | % of Propofol Released from Propofol Prodrugs after 60 min, Human Plasma [2]: 0% | % of Propofol Released from Propofol Prodrugs after 60 min, Human Liver S9 (0.5 mg/mL) [2]: 8% | % of Propofol Released from Propofol Prodrugs after 60 min, Caco-2 S9 [3]: 52%

H-Ala-Thr(γ-OC(O)OPropofol)-OH Hydrochloride [(16)]
% of Propofol Released from Propofol Prodrugs after 60 min, Caco-2 S9 [3]: 33%

CC(C)CC(N)C(=O)NC(C(=O)O)C(C)OC(=O)Oc1c(C(C)C)cccc1C(C)C.Cl (stereo not shown) [(26), H-Leu-Thr(γ-OC(O)OPropofol)-OH Hydrochloride]
% of Propofol Released from Propofol Prodrugs after 60 min, Pancreatin [1]: 30% | % of Propofol Released from Propofol Prodrugs after 60 min, Human Plasma [2]: 0% | % of Propofol Released from Propofol Prodrugs after 60 min, Human Liver S9 (0.5 mg/mL) [2]: 37% | % of Propofol Released from Propofol Prodrugs after 60 min, Caco-2 S9 [3]: 93%
